{"source": "patent US20250243176A1", "about": "“(S)-1-(1-ACRYLOYLPIPERIDIN-3-YL)-2-FLUORO-5,6,7,8,9,10-HEXAHYDROCYCLO HEPTA[B]INDOLE-4-CARBOXAMIDE, AND RELATED CRYSTALLINE FORMS, COMPOSITIONS, AND METHODS THEREOF” (GB005, Inc., priority 2021, published 2025)", "key": {"[1]": {"assay": "Phase 1 multiple ascending dose plasma pharmacokinetics", "type": "in vivo", "settings": "both sexes, human, oral, MAD cohort, 15 mg once daily for 10 days, fed"}, "CYP3A": {"tested_on": "CYP3A", "assay": "Phase 1 drug-drug interaction with itraconazole (strong CYP3A inhibitor)", "type": "in vivo, human", "settings": "for AUC(0-inf) / Cmax / T1/2 / Tmax: Cohort 12, 2 mg single dose; for AUC(0-inf) / Cmax: mean; for T1/2 / Tmax: median", "procedure": "Cohort 12 is an open-label, fixed-sequence, multiple-dose DDI study with itraconazole (ITZ). Subjects receive a single oral dose of Compound 1 administered in the fasted state on Day 1. Beginning on Day 3 and continuing through to Day 6, subjects receive itraconazole 200 mg once daily (QD) in a fasted state. On Day 5, subjects receive Compound 1 administered in the fasted state, 1 hour after administration of itraconazole.\nResults. Preliminary pharmacokinetic results evaluating the drug-drug interaction effect of a strong CYP3A inhibitor (itraconazole) on Compound 1 PK are presented, including 9 subjects from Cohort 12 receiving single doses of 2 mg Compound 1 under fasting conditions alone or in combination with once daily itraconazole 200 mg. Preliminary PK parameters are presented in Table 49 (all pharmacokinetic parameters of Table 49 are reported as Mean (% coefficient of variation), except for Tmax and t1/2, which are reported as Median (Min, Max)), and in FIG. 29 presenting the mean (SD) plasma concentration-time profiles of Compound 1."}, "[2]": {"assay": "Stability testing of formulations and Compound 1 alone (impurities, HPLC)", "type": "physicochemical", "settings": "40° C.", "procedure": "Both gels were prepared using Titanium Dioxide, Iron Oxide, Red and FD&C Blue #1 as colorants. One dried swatch of gel 004007 was added to the gel 1 samples and one dried swatch of 004013 was added to gel 2.\nThe samples were stored in 6 mL amber glass vials at: room temperature, 40° C., 50° C. and 5° C. for up 8 weeks. Control samples (Compound 1 alone) were analyzed in parallel with the study samples and control peaks were subtracted from the total impurities."}, "[3]": {"assay": "pKa determination, Sirius T3 titrator (Form III)", "type": "physicochemical", "settings": "titrations at 25° C., acidic and basic sites", "procedure": "In each of the following studies (Examples 6-10), the starting material was Compound 1 (free form, not salt) Form III. The material was a light yellow solid, comprising non-hygroscopic irregular shaped crystal with aggregation. The same analytical methods as described in Example 1 were employed.\npKa was assessed using Sirius T3 titrator. The acidic and basic sites were very weak, and undetectable by Sirius T3."}, "349 kinases": {"tested_on": "349 kinases", "assay": "Kinome scan, panel", "type": "biochemical", "settings": "kinome scan against 349 kinases", "text": "(§1) (S)-1-(1-acryloylpiperidin-3-yl)-2-fluoro-5,6,7,8,9,10-hexahydrocyclohepta[b]indole-4-carboxamide, hereinafter referred to as “Compound 1”, is an orally available, selective, potent inhibitor of Bruton's tyrosine kinase (BTK), thereby providing potential treatment options in BTK-driven diseases. The potency of Compound 1 for BTK inhibition is in the nM range in both cell-free enzymatic and whole blood functional assays."}, "[4]": {"assay": "Phase 1 safety and tolerability", "type": "in vivo, human", "settings": "healthy subjects, blinded safety data", "procedure": "The study investigates the administration of Compound 1 to healthy human subjects, to evaluate the safety, tolerability and PK of single and multiple-escalating doses. Additional objectives include assessing the effect of formulation on PK, the effect of food on PK, the effect of a CYP3A inhibitor on PK and the effect of Compound 1 on CYP3A activity. PK parameters including AUC, AUC, Cmax, and Tmax are determined. An additional exploratory objective evaluates pharmacodynamics, as the time-course of BTK inhibition. The study is conducted with up to 144 healthy male and female subjects, aged 18-55 years, with a body weight over 48 kg, BMI 18.5-30.0 kg/m^2, with no clinically significant abnormalities.\nSafety is assessed throughout the study and PK and PD are characterized using serial blood samples collected up to 48 hours post-dose for Compound 1 plasma concentrations, BTK target occupancy (TO) and target engagement (TE). Cerebrospinal fluid (CSF) samples are collected at 2 hours post-dose to characterize the relationship between Compound 1 plasma concentrations and CNS penetrance (CSF/Unbound plasma concentration). Compound 1 PK parameters (e.g., AUClast, AUCinf, Cmax, Tmax, t1/2) are estimated by standard noncompartmental methods. […]"}, "[5]": {"assay": "CNS penetration (background statement)", "text": "as §1"}, "[6]": {"settings": "2 mg Compound 1, itraconazole 200 mg once daily, fasting"}, "[7]": {"settings": "fasted, Day 5 (+ITZ 200 mg once daily)"}, "[8]": {"settings": "single 2 mg dose, fasting, alone or with itraconazole 200 mg once daily"}}, "note": "Entries after “also recorded” stand apart in the source; their conditions may differ.", "data": [{"smiles": "C=CC(=O)N1CCC[C@@H](c2c(F)cc(C(N)=O)c3[nH]c4c(c23)CCCCC4)C1", "note": "[Compound 1, (S)-1-(1-acryloylpiperidin-3-yl)-2-fluoro-5,6,7,8,9,10-hexahydrocyclohepta[b]indole-4-carboxamide]", "values": [{"measurement": "Tmax", "setting": "[1]", "value": 1.5, "unit": "h"}, {"measurement": "increase of AUCinf on coadministration of itraconazole", "setting": "CYP3A; [6]", "value": 15, "unit": "%"}, {"measurement": "increase of Cmax on coadministration of itraconazole", "setting": "CYP3A; [6]", "value": 23, "unit": "%"}, {"measurement": "AUC(0-inf)", "setting": "CYP3A; fasted, Day 1 (Alone)", "value": 46.7, "unit": "ng·h/mL"}, {"measurement": "Cmax", "setting": "CYP3A; fasted, Day 1 (Alone)", "value": 21.2, "unit": "ng/mL"}, {"measurement": "T1/2", "setting": "CYP3A; fasted, Day 1 (Alone)", "value": 3.13, "unit": "h"}, {"measurement": "Tmax", "setting": "CYP3A; fasted, Day 1 (Alone)", "value": 1.0, "unit": "h"}, {"measurement": "AUC(0-inf)", "setting": "CYP3A; [7]", "value": 54.4, "unit": "ng·h/mL"}, {"measurement": "Cmax", "setting": "CYP3A; [7]", "value": 26.3, "unit": "ng/mL"}, {"measurement": "T1/2", "setting": "CYP3A; [7]", "value": 3.14, "unit": "h"}, {"measurement": "Tmax", "setting": "CYP3A; [7]", "value": 1.5, "unit": "h"}, {"measurement": "AUC0-inf, % GMR ITZ/Alone", "setting": "CYP3A; Cohort 12, 2 mg, fasted", "value": 115, "unit": "%"}, {"measurement": "Cmax, % GMR ITZ/Alone", "setting": "CYP3A; Cohort 12, 2 mg, fasted", "value": 123, "unit": "%"}, {"measurement": "effect of a strong CYP3A inhibitor on PK", "setting": "CYP3A; coadministration of itraconazole", "value": "no clinically significant effect"}, {"measurement": "mean plasma Tmax", "setting": "CYP3A; [8]", "value": "1.0 to 1.5", "unit": "h"}, {"measurement": "terminal half-life", "setting": "CYP3A; [8]", "value": "approximately 3 hours"}, {"measurement": "Compound 1 Related Impurities, RRT 0.73", "setting": "[2]; T = 0", "value": 0.05, "unit": "% adjusted area"}, {"measurement": "Compound 1 Related Impurities, RRT 0.79", "setting": "[2]; T = 0", "value": "<LOQ"}, {"measurement": "Compound 1 Related Impurities, RRT 0.84", "setting": "[2]; T = 0", "value": 0.07, "unit": "% adjusted area"}, {"measurement": "Compound 1 Related Impurities, RRT 0.91", "setting": "[2]; T = 0", "value": 0.10, "unit": "% adjusted area"}, {"measurement": "Compound 1 Related Impurities, RRT 0.93", "setting": "[2]; T = 0", "value": 0.06, "unit": "% adjusted area"}, {"measurement": "Compound 1 Related Impurities, RRT 1.08", "setting": "[2]; T = 0", "value": 0.07, "unit": "% adjusted area"}, {"measurement": "Compound 1 Related Impurities, RRT 1.13", "setting": "[2]; T = 0", "value": 0.36, "unit": "% adjusted area"}, {"measurement": "Compound 1 Related Impurities, Total", "setting": "[2]; T = 0", "value": 0.71, "unit": "% adjusted area"}, {"measurement": "Compound 1 Related Impurities, RRT 0.73", "setting": "[2]; T = 3 weeks", "value": 0.06, "unit": "% adjusted area"}, {"measurement": "Compound 1 Related Impurities, RRT 0.79", "setting": "[2]; T = 3 weeks", "value": "<LOQ"}, {"measurement": "Compound 1 Related Impurities, RRT 0.84", "setting": "[2]; T = 3 weeks", "value": 0.05, "unit": "% adjusted area"}, {"measurement": "Compound 1 Related Impurities, RRT 0.91", "setting": "[2]; T = 3 weeks", "value": 0.07, "unit": "% adjusted area"}, {"measurement": "Compound 1 Related Impurities, RRT 0.93", "setting": "[2]; T = 3 weeks", "value": 0.07, "unit": "% adjusted area"}, {"measurement": "Compound 1 Related Impurities, RRT 1.08", "setting": "[2]; T = 3 weeks", "value": 0.07, "unit": "% adjusted area"}, {"measurement": "Compound 1 Related Impurities, RRT 1.13", "setting": "[2]; T = 3 weeks", "value": 0.30, "unit": "% adjusted area"}, {"measurement": "Compound 1 Related Impurities, Total", "setting": "[2]; T = 3 weeks", "value": 0.62, "unit": "% adjusted area"}, {"measurement": "Compound 1 Related Impurities, RRT 0.47", "setting": "[2]; T = 8 weeks", "value": 0.07, "unit": "% adjusted area"}, {"measurement": "Compound 1 Related Impurities, RRT 0.73", "setting": "[2]; T = 8 weeks", "value": 0.05, "unit": "% adjusted area"}, {"measurement": "Compound 1 Related Impurities, RRT 0.79", "setting": "[2]; T = 8 weeks", "value": "<LOQ"}, {"measurement": "Compound 1 Related Impurities, RRT 0.84", "setting": "[2]; T = 8 weeks", "value": 0.06, "unit": "% adjusted area"}, {"measurement": "Compound 1 Related Impurities, RRT 0.91", "setting": "[2]; T = 8 weeks", "value": 0.08, "unit": "% adjusted area"}, {"measurement": "Compound 1 Related Impurities, RRT 0.93", "setting": "[2]; T = 8 weeks", "value": 0.05, "unit": "% adjusted area"}, {"measurement": "Compound 1 Related Impurities, RRT 1.04", "setting": "[2]; T = 8 weeks", "value": 0.12, "unit": "% adjusted area"}, {"measurement": "Compound 1 Related Impurities, RRT 1.08", "setting": "[2]; T = 8 weeks", "value": 0.06, "unit": "% adjusted area"}, {"measurement": "Compound 1 Related Impurities, RRT 1.13", "setting": "[2]; T = 8 weeks", "value": 0.32, "unit": "% adjusted area"}, {"measurement": "Compound 1 Related Impurities, Total", "setting": "[2]; T = 8 weeks", "value": 0.81, "unit": "% adjusted area"}, {"measurement": "pKa", "setting": "[3]", "value": "undetectable"}, {"measurement": "kinase selectivity", "setting": "349 kinases", "value": "high kinase selectivity"}, {"measurement": "safety and tolerability", "setting": "[4]; MAD cohort, 15 mg once daily for 10 days, fed", "value": "generally well tolerated with no serious adverse events or early study discontinuations reported"}, {"measurement": "safety and tolerability", "setting": "[4]; SAD cohorts, single dose 5 to 200 mg, fed (moderate-fat meal)", "value": "generally well tolerated with no serious adverse events or early study discontinuations reported; also recorded: well tolerated across the dose range"}, {"measurement": "CNS penetration", "setting": "[5]", "value": "penetrant"}]}]}
